Reference: PubChem BioAssay (NCI)
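Where inhibition never reached the appropriate level, the endpoint shown equals the highest concentration tested. Otherwise, values were interpolated linearly from a five-concentration, 48-hour dose response in 96-well plates. Definition used: TGI = concentration required for complete inhibition of growth.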

Tests used:
Experiment in all cases: NCI anticancer screen, dose series, 48 h
DU-145 prostate = test system: DU-145 prostate
LOX IMVI melanoma = test system: LOX IMVI melanoma
MDA-MB-231 breast = test system: MDA-MB-231 breast
A549 NSCLC = test system: A549 NSCLC
HT29 colon = test system: HT29 colon
SR leukemia = test system: SR leukemia
786-0 renal = test system: 786-0 renal
HOP-62 NSCLC = test system: HOP-62 NSCLC
HOP-92 NSCLC = test system: HOP-92 NSCLC
UACC-257 melanoma = test system: UACC-257 melanoma
OVCAR-5 ovarian = test system: OVCAR-5 ovarian
SNB-19 CNS = test system: SNB-19 CNS
MDA-MB-435 = test system: MDA-MB-435
RXF 393 renal = test system: RXF 393 renal
EKVX NSCLC = test system: EKVX NSCLC
HCC-2998 colon = test system: HCC-2998 colon
HCT-15 colon = test system: HCT-15 colon
NCI-H522 lung = test system: NCI-H522 lung
NCI-H460 lung = test system: NCI-H460 lung
ACHN renal = test system: ACHN renal
HCT-116 colon = test system: HCT-116 colon
SK-MEL-28 melanoma = test system: SK-MEL-28 melanoma
SN12C renal = test system: SN12C renal
SNB-75 CNS = test system: SNB-75 CNS
SNB-78 CNS = test system: SNB-78 CNS
MOLT-4 leukemia = test system: MOLT-4 leukemia
KM12 colon = test system: KM12 colon
SF-539 CNS = test system: SF-539 CNS
UACC-62 melanoma = test system: UACC-62 melanoma
SK-MEL-5 melanoma = test system: SK-MEL-5 melanoma
BT-549 breast = test system: BT-549 breast
PC-3 prostate = test system: PC-3 prostate
HL-60(TB) leukemia = test system: HL-60(TB) leukemia
DMS 273 small cell lung = test system: DMS 273 small cell lung
T-47D breast = test system: T-47D breast
CAKI-1 renal = test system: CAKI-1 renal
OVCAR-4 ovarian = test system: OVCAR-4 ovarian
SF-268 CNS = test system: SF-268 CNS
OVCAR-3 ovarian = test system: OVCAR-3 ovarian
MDA-N = test system: MDA-N
SF-295 CNS = test system: SF-295 CNS
MALME-3M melanoma = test system: MALME-3M melanoma
HOP-18 NSCLC = test system: HOP-18 NSCLC
HS 578T breast = test system: HS 578T breast
SK-OV-3 ovarian = test system: SK-OV-3 ovarian
A498 renal = test system: A498 renal
NCI-H23 lung = test system: NCI-H23 lung
DLD-1 colon = test system: DLD-1 colon
K-562 leukemia = test system: K-562 leukemia
KM20L2 colon = test system: KM20L2 colon
RPMI-8226 leukemia = test system: RPMI-8226 leukemia
SW-620 colon = test system: SW-620 colon
M14 melanoma = test system: M14 melanoma
M19-MEL melanoma = test system: M19-MEL melanoma
UO-31 renal = test system: UO-31 renal
SK-MEL-2 melanoma = test system: SK-MEL-2 melanoma
NCI/ADR-RES ovarian = test system: NCI/ADR-RES ovarian
IGROV1 ovarian = test system: IGROV1 ovarian
COLO 205 colon = test system: COLO 205 colon
U251 CNS = test system: U251 CNS
DMS 114 small cell lung = test system: DMS 114 small cell lung
MCF7 breast = test system: MCF7 breast
TK-10 renal = test system: TK-10 renal
CCRF-CEM leukemia = test system: CCRF-CEM leukemia
OVCAR-8 ovarian = test system: OVCAR-8 ovarian
NCI-H226 lung = test system: NCI-H226 lung

N#CC(NNC(=O)Cc1ccccc1)c1c(O)ccc2ccccc12 (stereo not given)
TGI (DU-145 prostate): > 63.2 µM
TGI (LOX IMVI melanoma): 14.3 µM
TGI (MDA-MB-231 breast): 58.9 µM
TGI (A549 NSCLC): 44.1 µM
TGI (HT29 colon): 62.1 µM
TGI (SR leukemia): 38.3 µM
TGI (786-0 renal): 39.2 µM
TGI (HOP-62 NSCLC): 59.2 µM
TGI (HOP-92 NSCLC): 41.3 µM
TGI (UACC-257 melanoma): 18.3 µM
TGI (OVCAR-5 ovarian): > 43.5 µM
TGI (SNB-19 CNS): > 64.4 µM
TGI (MDA-MB-435): 84.1 µM
TGI (RXF 393 renal): 41.9 µM
TGI (EKVX NSCLC): 65.6 µM
TGI (HCC-2998 colon): 45.4 µM
TGI (HCT-15 colon): > 100 µM
TGI (NCI-H522 lung): 34 µM
TGI (NCI-H460 lung): > 77.5 µM
TGI (ACHN renal): 20.2 µM
TGI (HCT-116 colon): 50.9 µM
TGI (SK-MEL-28 melanoma): 97.7 µM
TGI (SN12C renal): 61.3 µM
TGI (SNB-75 CNS): 45 µM
TGI (SNB-78 CNS): 72 µM
TGI (MOLT-4 leukemia): > 48.3 µM
TGI (KM12 colon): > 72.4 µM
TGI (SF-539 CNS): 29 µM
TGI (UACC-62 melanoma): 12 µM
TGI (SK-MEL-5 melanoma): 15.7 µM
TGI (BT-549 breast): 24.7 µM
TGI (PC-3 prostate): > 62.9 µM
TGI (HL-60(TB) leukemia): > 46 µM
TGI (DMS 273 small cell lung): 19.1 µM
TGI (T-47D breast): 60.4 µM
TGI (CAKI-1 renal): 25.8 µM
TGI (OVCAR-4 ovarian): 51 µM
TGI (SF-268 CNS): 54.5 µM
TGI (OVCAR-3 ovarian): 26.5 µM
TGI (MDA-N): > 100 µM
TGI (SF-295 CNS): 40.2 µM
TGI (MALME-3M melanoma): 30.2 µM
TGI (HOP-18 NSCLC): 35.4 µM
TGI (HS 578T breast): 50.5 µM
TGI (SK-OV-3 ovarian): 31.3 µM
TGI (A498 renal): > 72.5 µM
TGI (NCI-H23 lung): 37.8 µM
TGI (DLD-1 colon): > 100 µM
TGI (K-562 leukemia): > 100 µM
TGI (KM20L2 colon): 42 µM
TGI (RPMI-8226 leukemia): > 60.1 µM
TGI (SW-620 colon): > 100 µM
TGI (M14 melanoma): 21.1 µM
TGI (M19-MEL melanoma): 16.3 µM
TGI (UO-31 renal): 11.2 µM
TGI (SK-MEL-2 melanoma): 26.9 µM
TGI (NCI/ADR-RES ovarian): 16 µM
TGI (IGROV1 ovarian): > 76.8 µM
TGI (COLO 205 colon): > 80.5 µM
TGI (U251 CNS): 45 µM
TGI (DMS 114 small cell lung): 5.38 µM
TGI (MCF7 breast): 14.3 µM
TGI (TK-10 renal): 80.4 µM
TGI (CCRF-CEM leukemia): 26.9 µM
TGI (OVCAR-8 ovarian): 52.2 µM
TGI (NCI-H226 lung): 47.3 µM

COc1ccc2ccccc2c1/C=C/C(=O)c1ccccc1
TGI (DU-145 prostate): 8.89 µM
TGI (LOX IMVI melanoma): 10.9 µM
TGI (MDA-MB-231 breast): 7.31 µM
TGI (A549 NSCLC): 10.4 µM
TGI (HT29 colon): 12.4 µM
TGI (SR leukemia): 2.55 µM
TGI (786-0 renal): 11.9 µM
TGI (HOP-62 NSCLC): 9 µM
TGI (HOP-92 NSCLC): 6.97 µM
TGI (UACC-257 melanoma): 16 µM
TGI (OVCAR-5 ovarian): 22 µM
TGI (SNB-19 CNS): 12.4 µM
TGI (MDA-MB-435): 7.18 µM
TGI (RXF 393 renal): 3.88 µM
TGI (EKVX NSCLC): 12.1 µM
TGI (HCC-2998 colon): 3.07 µM
TGI (HCT-15 colon): > 35.8 µM
TGI (NCI-H522 lung): 14.6 µM
TGI (NCI-H460 lung): 3.76 µM
TGI (ACHN renal): 11.1 µM
TGI (HCT-116 colon): 11 µM
TGI (SK-MEL-28 melanoma): 17.9 µM
TGI (SN12C renal): 11 µM
TGI (SNB-75 CNS): 4.01 µM
TGI (MOLT-4 leukemia): 6.78 µM
TGI (KM12 colon): 8 µM
TGI (SF-539 CNS): 7.23 µM
TGI (UACC-62 melanoma): 9.35 µM
TGI (SK-MEL-5 melanoma): 16.1 µM
TGI (BT-549 breast): 14.7 µM
TGI (PC-3 prostate): 13.9 µM
TGI (HL-60(TB) leukemia): 4.33 µM
TGI (T-47D breast): 8.32 µM
TGI (CAKI-1 renal): 15 µM
TGI (OVCAR-4 ovarian): 9.4 µM
TGI (SF-268 CNS): 17.9 µM
TGI (OVCAR-3 ovarian): 7.23 µM
TGI (MDA-N): 13.4 µM
TGI (SF-295 CNS): 15.6 µM
TGI (MALME-3M melanoma): 26.3 µM
TGI (HS 578T breast): 38.7 µM
TGI (SK-OV-3 ovarian): 11.2 µM
TGI (A498 renal): 10.9 µM
TGI (NCI-H23 lung): 9.69 µM
TGI (K-562 leukemia): 6.28 µM
TGI (RPMI-8226 leukemia): 4.07 µM
TGI (SW-620 colon): 6.53 µM
TGI (M14 melanoma): 9.62 µM
TGI (UO-31 renal): 9.36 µM
TGI (SK-MEL-2 melanoma): 3.64 µM
TGI (NCI/ADR-RES ovarian): > 54.8 µM
TGI (IGROV1 ovarian): 16.2 µM
TGI (COLO 205 colon): 9.76 µM
TGI (U251 CNS): 4.98 µM
TGI (MCF7 breast): 18.6 µM
TGI (TK-10 renal): 7.45 µM
TGI (CCRF-CEM leukemia): 4.17 µM
TGI (OVCAR-8 ovarian): 11.2 µM
TGI (NCI-H226 lung): 11.1 µM
